pEC50: −log10 of the molar value.
Molecular target: T1, human cannabinoid CB2 receptor (Homo sapiens, UniProt P34972)
T1 construct: expressed in transfected cells; host or cells: Saccharomyces cerevisiae strain MMY23
Experiment: Cannabinoid CB2 receptor agonist activity, yeast reporter assay (FDGlu fluorescence);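 on Emax: 100% equals maximal response of reference agonist HU210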
Format: cell-based
Conditions: for Emax: read-out: efficacy value (Emax) at the cloned human cannabinoid CB2 receptor
Protocol: The cannabinoid CB2 receptor agonist activity of the compounds of formula (I) was determined in accordance with the following experimental method.
Yeast (Saccharomyces cerevisiae) cells expressing the human cannabinoid CB2 receptor were generated by integration of an expression cassette into the ura3 chromosomal locus of yeast strain MMY23. This cassette consisted of DNA sequence encoding the human CB2 receptor flanked by the yeast GPD promoter to the 5′ end of CB2 and a yeast transcriptional terminator sequence to the 3′ end of CB2. MMY23 expresses a yeast/mammalian chimeric G-protein alpha subunit in which the C-terminal 5 amino acids of Gpa1 are replaced with the C-terminal 5 amino acids of human Gαi3 (as described in Brown et al. (2000), Yeast 16:11-22). Cells were grown at 30° C. in liquid Synthetic Complete (SC) yeast media (Guthrie and Fink (1991), Methods in Enzymology, Vol. 194) lacking uracil, tryptophan, adenine and leucine to late logarithmic phase (approximately 6 OD600/ml).
Agonists were prepared as 10 mM stocks in DMSO. […] Agonist solutions in DMSO (1% final assay volume) were transferred into black, clear bottom, microtitre plates from NUNC (96- or 384-well). […] This mixture (50 ul per well for 384-well plates, 200 ul per well for 96-well plates) was added to agonist in the assay plates (Multidrop 384, Labsystems). After incubation at 30° C. for 24 hours, fluorescence resulting from degradation of FDGlu to fluorescein due to exoglucanase, an endogenous yeast enzyme produced during agonist-stimulated cell growth, was determined using a Spectrofluor microtitre plate reader (Tecan; excitation wavelength: 485 nm; emission wavelength: 535 nm). Fluorescence was plotted against compound concentration and iteratively curve fitted using a four parameter fit to generate a concentration effect value.
where Max[compound X] and Min[compound X] are the fitted maximum and minimum respectively from the concentration effect curve for compound X, and Max[HU210] and Min[HU210] are the fitted maximum and minimum respectively from the concentration effect curve for (6aR,10aR)-3-(1,1′-Dimethylheptyl)-6a,7,10,10a-tetrahydro-1-hydroxy-6,6-dimethyl-6H-dibenzo[b,d]pyran-9-methanol (HU210; available from Tocris). Equieffective molar ratio (EMR) values were calculated from the equation EMR=EC50 [compound X]/EC50 [HU210]
Where EC50 [compound X] is the EC50 of compound X and EC50 [HU210] is the EC50 of HU210.

T1 sequence (P34972 whole entry): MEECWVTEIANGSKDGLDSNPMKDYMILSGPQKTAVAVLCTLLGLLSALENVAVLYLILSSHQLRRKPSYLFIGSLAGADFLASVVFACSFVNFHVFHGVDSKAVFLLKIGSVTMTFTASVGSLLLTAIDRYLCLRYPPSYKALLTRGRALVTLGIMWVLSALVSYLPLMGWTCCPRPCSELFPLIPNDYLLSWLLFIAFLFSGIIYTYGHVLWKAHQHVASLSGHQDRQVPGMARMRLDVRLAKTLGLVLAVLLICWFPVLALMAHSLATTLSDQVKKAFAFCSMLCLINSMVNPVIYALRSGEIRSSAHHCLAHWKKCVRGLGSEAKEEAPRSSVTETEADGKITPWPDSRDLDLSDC

SMILES | pEC50 | Emax
CC(C)c1cc(Nc2ccc(C#N)cc2F)ncc1C(=O)NCC1CCCC1 [Example 293, 6-(4-Cyano-2-fluoro-phenylamino)-N-cyclopentylmethyl-4-isopropyl-nicotinamide] | > 6.52 | > 50%
CC(C)c1cc(Nc2ccc(F)c(Cl)c2)ncc1C(=O)NCC1CCC1 [Example 254, 6-(3-Chloro-4-fluoro-phenylamino)-N-cyclobutylmethyl-4-isopropyl-nicotinamide] | > 6.52 | > 50%
CC(C)c1cc(Nc2cc(C(F)(F)F)ccc2Br)ncc1C(=O)NCC1CCOCC1 [Example 238, 6-(2-Bromo-5-trifluoromethyl-phenytamino)-4-isopropyl-N-(tetrahydro-pyran-4-ylmethyl)-nicotinamide] | > 6.52 | > 50%
CC(C)c1cc(Nc2ccc(C#N)c(Br)c2)ncc1C(=O)NCC1CCOCC1 [Example 239, 6-(3-Bromo-4-cyano-phenylamino)-4-isopropyl-N-(tetrahydro-pyran-4-ylmethyl)-nicotinamide] | > 6.52 | > 50%
CC(C)c1cc(Nc2ccc(Cl)cc2Br)ncc1C(=O)NCC1CCOCC1 [Example 83, 6-(2-Bromo-4-chloro-phenylamino)-4-isopropyl-N-(tetrahydro-pyran-4-ylmethyl) nicotinamide] | > 6.52 | > 50%
Cc1cc(Cl)ccc1Nc1cc(C(C)C)c(C(=O)NCC2CCC2)cn1 [Example 258, 6-(4-Chloro-2-methyl-phenylamino)-N-cyclobutylmethyl-4-isopropyl-nicotinamide] | > 6.52 | > 50%
CC(C)c1cc(Nc2ccc(OC(F)(F)F)cc2Br)ncc1C(=O)NCC1CCC1 [Example 291, 6-(2-Bromo-4-trifluoromethoxy-phenylamino)-N-cyclobutylmethyl-4-isopropyl-nicotinamide] |  | > 50%
Cc1c(Nc2cc(C(C)C)c(C(=O)NCC3CCOCC3)cn2)cccc1C(F)(F)F [Example 84, 4-lsopropyl-6-(2-methyl-3-trifluoromethyl-phenylamino)-N-(tetrahydro-pyran-4-ylmethyl)-nicotinamide] | > 6.52 | > 50%
Cc1cc(Nc2cc(C(C)C)c(C(=O)NCC3CCOCC3)cn2)ccc1Br [Example 86, 6-(4-Bromo-3-methyl-phenylamino)-4-isopropyl-N-(tetrahydro-pyran-4-ylmethyl)-nicotinamide] | > 6.52 | > 50%
Cc1cccc(Nc2cc(C(C)C)c(C(=O)NCC3CCCCC3)cn2)c1 [Example 13, N-Cyclohexylmethyl-4-isopropyl-6-m-tolytamino-nicotinamide] | > 6.52 | > 50%
O=C(NCC1CCC1)c1cnc(Nc2ccc(Cl)c(Cl)c2)cc1C(F)(F)F [Example 157, N-Cyclobutylmethyl-6-(3,4-dichloro-phenylamino)-4-tri-fluoromethyl-nicotinamide] | > 6.52 | > 50%
CC(C)c1cc(Nc2cc(Cl)cc(Cl)c2)ncc1C(=O)NCC1CCC1 [Example 263, N-Cyclobutylmethyl-6-(3,5-dichloro-phenylamino)-4-isopropyl-nicotinamide] | > 6.52 | > 50%
CC(C)c1cc(Nc2cc(Cl)ccc2Cl)ncc1C(=O)NCC1CCOCC1 [Example 87, 6-(2,5-Dichloro-phenylamino)-4-isopropyl-N-(tetrahydro-pyran-4-ylmethyl)-nicotinamide] | > 6.52 | > 50%
O=C(NCC1CCC1)c1cnc(Nc2ccccc2F)cc1C(F)(F)F [Example 124, N-Cyclobutylmethyl-6-(2-fluoro-phenylamino)-4-tri-fluoromethyl-nicotinamide] | > 6.52 | > 50%
CC(C)c1cc(Nc2cccc(OC(F)(F)F)c2)ncc1C(=O)NCC1CCCC1 [Example 25, N-Cyclopentylmethyl-4-isopropyl-6-(3-trifluoromethoxy-phenylamino)-nicotinamide] | > 6.52 | > 50%
CC(C)c1cc(Nc2ccc(OC(F)(F)F)c(Cl)c2)ncc1C(=O)NCC1CCOCC1 [Example 78, 6-(3-Chloro-4-trifluoromethoxy-phenylamino)-4-isopropyl-N-(tetrahydro-pyran-4-ylmethyl)-nicotinamide] | > 6.52 | > 50%
CC(C)c1cc(Nc2ccc(Cl)cc2Cl)ncc1C(=O)NCC1CCCC1 [Example 31] | > 6.52 | > 50%

SMILES | pEC50 | Emax
O=C(NCC1CCC1)c1cnc(Nc2ccc(F)cc2F)cc1C(F)(F)F [Example 166, N-Cyclobutylmethyl-6-(2,4-difluoro-phenylamino)-4-tri-fluoromethyl-nicotinamide] | > 6.52 | > 50%
O=C(NCC1CC1)c1cnc(Nc2cc(Cl)cc(Cl)c2)cc1C(F)(F)F [Example 152, N-Cyclopropylmethyl-6-(3,5-dichloro-phenylamino)-4-tri-fluoromethyl-nicotinamide] | > 6.52 | > 50%
O=C(NCC1CCOCC1)c1cnc(Nc2cccc(Cl)c2Cl)cc1C(F)(F)F [Example 135, N-(Tetrahydropyran-4-yl-methyl)-6-(2,3-dichloro-phenylamino)-4-trifluoro-methyl-nicotinanhide] | > 6.52 | > 50%
CC(C)c1cc(Nc2cc(Cl)ccc2Cl)ncc1C(=O)NCC1CCC1 [Example 264, N-Cyclobutylmethyl-6-(2,5-dichloro-phenylamino)-4-isopropyl-nicotinamide] | > 6.52 | > 50%
CC(C)CNC(=O)c1cnc(Nc2ccc(Cl)c(Cl)c2)cc1C(C)C [Example 270, 6-(3,4-Dichloro-phenylamino)-N-isobutyl-4-isopropyl-nicotinamide] | > 6.52 | > 50%
CC(C)CNC(=O)c1cnc(Nc2ccc(Cl)cc2Cl)cc1C(F)(F)F [Example 143, N-Isobutyl-6-(2,4-dichloro-phenylamino)-4-trifluoro-methyl-nicotinamide] | > 6.52 | > 50%
O=C(NCC1CCCCCC1)c1cnc(Nc2ccc(Cl)cc2Cl)cc1C(F)(F)F [Example 139, N-Cycloheptylmethyl-6-(2,4-dichloro-phenylamino)-4-tri-fluoromethyl-nicotinamide] | > 6.52 | > 50%
O=C(NCC1CCCCC1)c1cnc(Nc2cccc(Br)c2)cc1C(F)(F)F [Example 116, N-Cyclohexylmethyl-6-(3-bromophenylamino)-4-tri-fluoromethyl-nicotinamide] | > 6.52 | > 50%
CC(C)c1cc(Nc2cccc(C(F)(F)F)c2F)ncc1C(=O)NCC1CCCC1 [Example 245, 6-(2-Fluoro-3-trifluoromethyl-phenylamino)-N-cyclopentylmethyl-4-isopropyl-nicotinamide] | > 6.52 | > 50%
O=C(NC1CCC1)c1cnc(Nc2ccc(Cl)c(Cl)c2)cc1C(F)(F)F [Example 154, N-Cyclobutyl-6-(3,4-dichloro-phenylamino)-4-trifluoro-methyl-nicotinamide] | > 6.52 | > 50%
O=C(NCC1CCOCC1)c1cnc(Nc2ccc(Cl)cc2Cl)cc1C(F)(F)F [Example 105, 6-(2,4-Dichloro-phenylamino)-N-(tetrahydropyran-4-ylmethyl)-4-trifluoromethyl-nicotinamide] |  | > 50%
O=C(NCC1CCOCC1)c1ccc(Nc2cccc(Cl)c2)nc1C(F)(F)F [Example 204, 6-(3-Chloro-phenylamino)-N-(tetrahydro-pyran-4-ylmethyl)-2-trifluoromethyl-nicotinamide] | > 6.52 | > 50%
CC(C)CNC(=O)c1cnc(Nc2cccc(Cl)c2)cc1C(F)(F)F [Example 113, N-Isobutyl-6-(3-chloro-phenylamino)-4-trifluoro-methyl-nicotinainide] | > 6.52 | > 50%
O=C(NCC1CCOCC1)c1cnc(Nc2cc(Cl)ccc2O)cc1C(F)(F)F [Example 170, N-(Tetrahydropyran-4-yl-methyl)-6-(2-hydroxy-5-chloro-phenylamino)-4-trifluoromethyl-nicotinamide] | > 6.52 | > 50%
Cc1cc(C#N)ccc1Nc1cc(C(C)C)c(C(=O)NCC2CCCC2)cn1 [Example 93, 6-(4-Cyano-2-methyl-phenylamino)-N-cyclopentylmethyl-4-isopropyl-nicotinamide] | > 6.52 | > 50%
CC(C)c1cc(Nc2cc(Cl)cc(Cl)c2)ncc1C(=O)NCC1CCOCC1 [Example 75, 6-(3,5-Dichloro-phenylamino)-4-isopropyl-N-(tetrahydro-pyran-4-ylmethyl)-nicotinamide] | > 6.52 | > 50%

Reference: patent publication US20060240048A1 (priority 2002, published 2006)
